{"source": "patent US5770623A", "about": "“Argine antagonists for inhibition of systemic hypotension associated with nitric oxide production or endothelial derived relaxing factor” (Board of Regents, The University of Texas System, priority 1995, dated 1998)", "key": {"[1]": {"system": "murine endothelial cells exposed to Gamma-Interferon and TNF (nitric oxide production)", "assay": "Inhibition of nitrite production by MBEC exposed to IFN (100 U/ml) and TNF (500 U/ml)", "format": "cell-based", "conditions": "for IC50: Mus musculus, Endothelial cell", "protocol": "Endothelial cells--MBEC's were isolated from murine brain microvessels and cultured on gelatin-coated tissue culture dishes in DME/F12 media supplemented with 2% PPPHS, 5% FBS (Hyolone), 50 μg/ml ECGF (Biomed Tech), and 10 U/ml heparin (Sigma) as previously described (Belloni et al. 1989). The endothelial derivation of MBEC's was determined by the presence of a non-thrombogenic surface to platelets and immunofluorescent staining for Factor VIII related antigen. MBEC's were used between passage 6-9 for all experiments.\nNitrite Assay--MBE cells were cultured on gelatin-coated well plates (Corning) in 100 μl of culture medium and treated with cytokines at 3 days post-confluence. After 48 hours, nitrite production was determined by a colorimetric assay. […] All treatments were performed in triplicate and data presented as the mean value±standard deviation. […]\nproduction by murine endothelial cells exposed to GammaInterferon (100\nU/ml) and TNF (500 U/ml) in vitro."}, "[2]": {"system": "mongrel dogs with TNF-induced hypotension", "assay": "TNF-induced hypotension in anesthetized dogs", "format": "in vivo, dog", "conditions": "for effect of L-arginine on NMMA pressor effect (words): TNF- and NMMA-treated dogs", "protocol": "Recombinant human TNF specific activity 2×10^7 units/mg, was from the Niposn Chemical Corporation, Tokyo, Japan. TNF was administered at a dose of 10 mcg/kg in a volume of 10 ml of phosphate buffered saline containing 2 mgs/ml of dog albumin. […] Arginine was obtained from Sigma Chemical Company, St. Louis, Mo.\nFour conditioned mongrel dogs, 2 males and 2 females, weighing 28 to 30 kgs, were studied. Care of the animals were in accordance with the recommendation of the American Association for Accreditation of Laboratory Animals [DHEW(DHHS) publication no. (NIH) 78-23, revised, 1978]. On the day of the experiment, the dogs were fasted overnight. They were anesthetized with phenobarbital (10 mg/kg). They were then intubated orally with a #10 fr. endotracheal tube and ventilated with a Harvard pump ventilator at a rate of 12 breaths per minute and a tidal volume of 15 ml/kg. An arterial line was percutaneously placed in the femoral artery on the day of the experiment.\nMean (electronic) and phasic systemic arterial pressures (SAP) were continuously recorded on a Hewlett-Packard recording system (model 7758B) using strain gauge manometers (Hewlett-Packard model 1290A) which were connected to the arterial line. Heart rate (HR) was determined from an EKG tracing and continuously recorded on the Hewlett-Packard recording system. Oxyhemoglobin saturation (SaO2) was obtained using a pulse oximeter (BIOX 111, Boulder, Colo.). continuous time-series records of SAP, HR, and SaO2 were obtained using a Lab Master analog-to-digital convertor (16 channel, 12 bit, 30 kHz; Scientific Solutions, Inc.) sampling at 55 Hz and storing the 6 sec averages on a magnetic disk."}, "[3]": {"system": "guinea pig pulmonary artery rings", "assay": "Relaxation of preconstricted guinea pig pulmonary artery rings"}, "[4]": {"system": "rabbit aortic rings", "assay": "ACh-induced relaxation of isolated rabbit aortic rings", "conditions": "for effect on ACh-induced vasorelaxation: NE-preconstricted rabbit aorta, FIG. 11", "excerpt": "FIG. 9b compares concentration-response relationships for the same set of mono- and disubstituted arginine analogs as FIG. 9a, plus an additional dimethyl analog with the two methyl groups on different guanidino nitrogens. The test is for inhibition of ACh-induced vasorelaxation in isolated rabbit aortic rings. The points plotted represent means±S.E. of the maximum responses to ACh observed in the presence of the indicated concentrations of analogs (n=4).\nGuinea pig pulmonary artery (GP PA), rat and rabbit aorta (Ao), and dog coronary (CA) and femoral artery (FA) were precontracted with NE (1 μM) and relaxed with a single concentration of ACh. Concentration of ACh: GP PA 1 μM, rat Ao […], rabbit Ao 0.3, dog CA […] and […] 0.1 μM. […] The concentrations of L-citrulline (L-cit), D-arginine (D-arg) and L-arginine (L-arg) were all 0.5 mM. Bars are mean values±SEM (n=4-6).\nFIG. 11 contains representative physiograph tracings which depict ACh-induced relaxation of NE-preconstricted rings prepared from rabbit aorta (upper panel) and human internal mammary artery (lower panel)."}, "[5]": {"system": "vascular EDRF/NO synthesis", "conditions": "Sakuma et al., cited from earlier work"}}, "note": "“Also recorded” adds a separate entry of the source. Where two headings read alike, the source gives them in different places."}
{"smiles": "N=C(N)NCCC[C@H](N)C(=O)O", "note": "[L-arginine, reference compound]", "values": [{"measurement": "reversal of NMMA inhibition of nitrite production", "setting": "[1]; 8 mM L-arginine vs 1 mM NMMA", "result": "completely reversing the effects of 1 mM NMMA"}, {"measurement": "nitrite concentration upon adding L-arginine back to arginine-free medium", "setting": "[1]; MBEC exposed to TNF and IFN", "result": "increased in a dose dependent manner"}, {"measurement": "blood pressure after L-arginine", "setting": "[2]; FIG. 7a, after TNF and NMMA", "result": 37, "unit": "mmHg"}, {"measurement": "effect of L-arginine on NMMA pressor effect (words)", "setting": "[2]", "result": "antagonized; also recorded: completely reversed; also recorded: rapid decrease of blood pressure"}, {"measurement": "effect of L-arginine on NMMA pressor effect (words)", "setting": "[2]; listed as arginine", "result": "reversed"}, {"measurement": "effect on relaxation in the presence of NMMA", "setting": "[3]; excess L-arginine", "result": "restored relaxation in the presence of NMMA"}, {"measurement": "effect on ACh-induced vasorelaxation", "setting": "[4]", "result": "restores relaxation"}, {"measurement": "restoration of EDRF/NO synthesis", "setting": "[5]; excess L-arginine after L-NMA", "result": "restored"}]}
{"smiles": "CNC(=N)NCCC[C@H](N)C(=O)O", "note": "[NMMA, N^G -methyl-L-arginine]", "values": [{"measurement": "concentration giving maximal inhibition of nitrite production", "setting": "[1]; MBEC exposed to TNF and IFN", "result": 1, "unit": "mM"}, {"measurement": "effect of NMMA on nitrite production", "setting": "[1]; MBEC exposed to TNF and IFN", "result": "inhibited"}, {"measurement": "IC50", "setting": "[1]; 48 h, read-out: ED50% (effective dose that inhibited 50% of the nitrite production), murine endothelial cells, Gamma-Interferon (100 U/ml) and TNF (500 U/ml), in vitro", "result": 337, "unit": "µM"}, {"measurement": "IC50", "setting": "[1]; read-out: E.D. 50% for inhibition of nitrite production, MBEC exposed to TNF and IFN", "result": 330, "unit": "µM"}, {"measurement": "blood pressure after NMMA", "setting": "[2]; FIG. 7a, TNF-treated", "result": 115, "unit": "mm"}, {"measurement": "increase in blood pressure by NMMA", "setting": "[2]; FIG. 7a, TNF-treated", "result": 79, "unit": "mm"}, {"measurement": "time to pressor effect", "setting": "[2]; after TNF", "result": "≤ 2", "unit": "min"}, {"measurement": "pressor response in TNF-hypotensive vs normotensive dogs", "setting": "[2]; compared with normotensive dogs", "result": "much more dramatic in dogs with TNF-induced hypotension than in normotensive dogs"}, {"measurement": "reversal of TNF-associated hypotension", "setting": "[2]; dogs, TNF 10 mcg/kg", "result": "blocked; also recorded: reverse the hypotension"}, {"measurement": "effect on vasodilatation by ACh, LTD4 and HIST", "setting": "[3]; endothelium-dependent vasodilators", "result": "blocks endothelium-dependent relaxation; also recorded: blocks the action of ACh, LTD4 and HIST"}, {"measurement": "inhibition of EDRF/NO synthesis", "setting": "[3]; guinea pig pulmonary artery rings, 1 μM NE, ACh", "result": "served as inhibitors of EDRF/NO synthesis"}, {"measurement": "inhibition of EDRF/NO in vascular preparation", "setting": "[3]; guinea pig pulmonary artery, NMMA 100 μM", "result": "arginine reversible inhibitor of EDRF/NO"}, {"measurement": "effect on vasodilatation by SNP", "setting": "[3]; sodium nitroprusside, endothelium-independent", "result": "does not inhibit"}, {"measurement": "effect on ACh-induced vasorelaxation", "setting": "[4]", "result": "attenuate ACh-induced vasorelaxation"}, {"measurement": "inhibition of EDRF/NO in vascular preparation", "setting": "[4]; rabbit aorta, NMMA 100 μM", "result": "arginine reversible inhibitor of EDRF/NO"}, {"measurement": "inhibition of vascular EDRF/NO synthesis", "setting": "[5]; induced by acetylcholine and histamine", "result": "inhibit vascular EDRF/NO synthesis"}]}
